# According to US20250059509A1, “METHOD FOR PRODUCING MACROPHAGES, DIFFERENTIATION INDUCING AGENT, DIFFERENTIATION INDUCTION KIT, METHOD FOR CULTURING MACROPHAGES, AGENT FOR PROMOTING MACROPHAGE PROPAGATION, KIT FOR PROMOTING MACROPHAGE PROLIFERATION, METHOD FOR MACROPHAGE PROLIFERATION, AND MACROPHAGES” (Kagoshima University, priority 2021, published 2025):
# B1: macrophage colony-stimulating factor (protein, UniProt P07141 33-552, looked up)
# Macrophage colony-stimulating …: KEVSEHCSHMIGNGHLKVLQQLIDSQMETSCQIAFEFVDQEQLDDPVCYLKKAFFLVQDIIDETMRFKDNTPNANATERLQELSNNLNSCFTKDYEEQNKACVRTFHETPLQLLEKIKNFFNETKNLLEKDWNIFTKNCNNSFAKCSSRDVVTKPDCNCLYPKATPSSDPASASPHQPPAPSMAPLAGLAWDDSQRTEGSSLLPSELPLRIEDPGSAKQRPPRSTCQTLESTEQPNHGDRLTEDSQPHPSAGGPVPGVEDILESSLGTNWVLEEASGEASEGFLTQEAKFSPSTPVGGSIQAETDRPRALSASPFPKSTEDQKPVDITDRPLTEVNPMRPIGQTQNNTPEKTDGTSTLREDHQEPGSPHIATPNPQRVSNSATPVAQLLLPKSHSWGIVLPLGELEGKRSTRDRRSPAELEGGSASEGAARPVARFNSIPLTDTGHVEQHEGSSDPQIPESVFHLLVPGIILVLLTVGGLLFYKWKWRSHRDPQTLDSSVGRPEDSSLTQDEDRQVELPV
# System: TREM2
# Assay: Ligand activity using TREM2 reporter cells (GFP-positive cells by flow cytometry)
# Conditions: plate coated with 1 μg test substance per well; reporter cells cultured 16 hours; FIG. 9
# Description: Using a retroviral vector, TREM2 and DAP12 cDNAs were introduced into 2B4-NFAT-GFP reporter cells (obtained from RIKEN), to prepare reporter cells in which binding of a ligand to TREM2 expressed on the cell surface induces expression of GFP (Iizasa and others, Nature Communications, 2021, vol. 12 (1), p. 2299-16).
# As a test substance, β-GluCer, α-GalCer, palmitic acid, stearic acid, cholesterol, PC, LPC, PE, Sulf, or MA was diluted with methanol to 50 μg/ml. The test substance was aliquoted in 20-μl (1-μg) portions into a 96-well cell culture plate, and then the plate was left to stand in a clean bench, to evaporate the methanol.
# In the culture plate coated with the test substance, the reporter cells were plated at 5×10^4 cells/100 μl/well. The cells were cultured in a CO2 incubator for 16 hours. The culture was suspended well, and transferred to a V-bottom 96-well plate. The sample was centrifuged at 500 G at 4° C. for 5 minutes, and then the supernatant was discarded. The sample was suspended by adding 50 μl/well of 10 μg/ml PI/1% FBS/HBSS. GFP-positive cells in the sample were analyzed by flow cytometry.
row,Molecule,ligand activity for TREM2
1,"CCCCCCCCCCCCCCCCCCCCCCCCCC(=O)N[C@@H](CO[C@H]1O[C@H](CO)[C@H](O)[C@H](O)[C@H]1O)[C@H](O)[C@H](O)CCCCCCCCCCCCCC [α-GalCer, α-galactosylceramide]",have ligand activity for TREM2
2,phosphatidylethanolamine [PE],have ligand activity for TREM2
3,sulfatide,have ligand activity for TREM2
4,lysophosphatidylcholine [LPC],have ligand activity for TREM2
5,phosphatidylcholine [PC],have ligand activity for TREM2
6,mycolic acid [MA],have ligand activity for TREM2
7,β-glucosylceramide [β-GluCer],have ligand activity for TREM2

# System: mouse bone marrow cells
# Assay: Induction of differentiation of mouse bone marrow cells with each test substance, viable cells by WST-8 assay
# Format: cell-based
# Conditions: plate coated with 1 μg test substance per well; WST-8 on Days 5, 10, 14 and 20; FIG. 10
# Description: To fresh 10% FBS/RPMI medium, 1/10 volume of WST-8 (07553-15 Cell Count Reagent SF, manufactured by Nacalai Tesque Inc.) was added to prepare a medium for counting the number of viable cells. The old medium in the culture plate was removed by aspiration, and the medium for counting the number of viable cells was dispensed at 100 μl/well. The cells were cultured at 37° C. in a 5% CO2 incubator for 1 hour. The absorbance at 450 nm was measured using a microplate reader.
# A 96-well cell culture plate was coated with each test substance in the same manner as described above, and mouse bone marrow cells were plated in the plate at 4×10^4 cells/100 μl/well.
row,Molecule,differentiation of bone marrow cells into LIMs
1,"CCCCCCCCCCCCCCCCCCCCCCCCCC(=O)N[C@@H](CO[C@H]1O[C@H](CO)[C@H](O)[C@H](O)[C@H]1O)[C@H](O)[C@H](O)CCCCCCCCCCCCCC [α-GalCer, α-galactosylceramide]",induced differentiation of the bone marrow cells into LIMs
2,phosphatidylethanolamine [PE],induced differentiation of the bone marrow cells into LIMs
3,sulfatide,induced differentiation of the bone marrow cells into LIMs
4,lysophosphatidylcholine [LPC],induced differentiation of the bone marrow cells into LIMs
5,phosphatidylcholine [PC],induced differentiation of the bone marrow cells into LIMs
6,mycolic acid [MA],induced differentiation of the bone marrow cells into LIMs
7,β-glucosylceramide [β-GluCer],induced differentiation of the bone marrow cells into LIMs

# System: LIMs and BMDMs
# Assay: Cryopreservation test of LIMs and BMDMs
# Format: cell-based, mouse
# Conditions: −80° C. for thirty days; 25 ng/ml M-CSF; viable cells Day 6 or Day 14; FIG. 6
# Description: LIMs and BMDMs at 80 to 90% confluence were detached from culture plates, and separately centrifuged at 500 G for 5 minutes, followed by discarding the supernatant. In a CELLBANKER 1 (manufactured by Nippon Zenyaku Kogyo Co., Ltd.), the cells were suspended at 5×10^5 to 5×10^6 cells per 1 ml, and the resulting suspension was transferred to a CryoTube, and stored at −80° C. Thirty days later, the cells were thawed, and plated in a 24-well plate without stimulation (None), with addition of 25 ng/ml M-CSF (M-CSF), or with brain lipid coating (BL). The number of viable cells on Day 6 or Day 14 after the plating was counted using a hemocytometer.
row,Molecule,proliferation of BMDMs thawed after cryopreservation
1,B1,did not proliferate
